Measurements from US12329774B2, “Method and composition for enhancing the quality and benefits of sleep” (priority 2020, dated 2025).
In brackets after ≈: the same amount, converted by molar mass. Entries after “also recorded” stand apart in the source; their conditions may differ.

Experiments:
[1] = system: sleep cycle; conditions: Jang et al. [11], cited from earlier work
[2] = system: MDA, SOD, CAT, GSHPx; assay: Brain antioxidant status in caffeine-induced wakefulness mice; type: in vivo
Protocol: Animals were anesthetized with urethane ([…], i.p., Sigma U2500). Body temperature was maintained between 36.5 and 37° C. with homeothermic blanket. Mice were stabilized under a stereotaxic frame (World Precision Instruments, Berlin; Germany) and an incision was made on the skin along the anterior/posterior line of the skull. The left […] was removed gently with a dental drill (Marothon-3; Korea). Two Ag-AgCl sphere electrodes were placed over the left hemisphere with the reference electrode attached on the pinna. […] Brains were rapidly removed, frozen on dry ice and stored at -80° C. until analyses could be performed. Biochemical and Oxidative Stress Markers-Serum melatonin, serotonin, and dopamine were measured using ELISA kits. Brain levels of malondialdehyde (MDA) were measured by HPLC. Brain activities of superoxide dismutase (SOD), catalase (CAT) and glutathione peroxidase (GSHPx) were measured using ELISA kits for each analyte.

[3] = system: caffeine-induced wakefulness mice; assay: Caffeine-induced wakefulness mouse model: sleep latency, sleep duration, number falling asleep; type: in vivo
Protocol: Animals and Experimental design: Seven male BALB/c mice per treatment arm (age: 8 weeks, weight: […]) were housed in a controlled environment with a 12:12-h light-dark cycle at 22° C. and were provided with mice chow and water ad libitum. All experiments were conducted under the National Institutes of Health's Guidelines for the Care and Use of Laboratory Animals and approved by the Ethics Committee of the Medipol University.
Drugs and materials: Study product was provided by Nutrition21 LLC (Mg-Theanate #1=lot AA209-122-20, Mg-Theanate #2=lot BLS-DN 13). […] The concentration of each drug solution was adjusted so that the volume injected was constant at 1.0 ml/kg BW. All drug solutions were prepared fresh daily, and were administered intraperitoneally (i.p.). […]

[4] = Nathan [17]; cited from earlier work
[5] = system: stimulatory action of caffeine; conditions: rats, EEG, Kakuda et al. [13]; cited from earlier work
[6] = system: Bax, Bcl-2, Caspase-3, eNOS, iNOS; assay: Western blot of brain cell survival indicators in caffeine-induced wakefulness mice; conditions: caffeine-induced wake mouse, result in words
[7] = system: pentobarbital-induced sleep; assay: Pentobarbital-induced sleep test mouse model; type: in vivo, mice; conditions: for Duration of sleep / Sleep latency period: pentobarbital 42 mg/kg, test article 20 mg theanine/kg per os 45 min before
Protocol: Subsequently, pentobarbital was administered intraperitoneally to induce a hypnotic state that promoted sleep. The effects on sleep of the test agents were monitored.
Pentobarbital-induced sleep was performed according to published methods with slight modifications. Mice were fasted for 24 h prior to the experiment. Each test article was dissolved or suspended in physiological saline and then was administered per os. The groups were administered doses of 20 mg/kg theanine, Mg-theanate #1 (20 mg theanine/kg), and Mg-theanate #2 (20 mg theanine/kg), respectively. Forty-five minutes later, a hypnotic dose of pentobarbital (42 mg/kg) was injected into the left side of the abdomen. After injection, the mice were placed in individual cages and subjected to measurements of sleep latency and duration. Sleep latency was defined as the period between pentobarbital injection and the loss of righting reflex (sleep onset), and sleep duration denoted the time elapsed between loss of the righting reflex and recovery.
Statistical Analyses—Data are shown as mean±SEM. Sample size was calculated based on a power of 85% and a p-value of 0.05. Given that assumption, a sample size of seven per treatment was calculated. The data were analyzed using the GLM procedure of SAS (SAS Institute: SAS User's Guide: Statistics). The treatments were compared using ANOVA and Student's unpaired t-test; P<0.05 was considered statistically significant.

[8] = system: brain serotonin, dopamine and melatonin; assay: Brain neurotransmitter levels by ELISA in caffeine-induced wakefulness mice; type: in vivo; conditions: for Neurotransmitter levels (brain serotonin, dopamine, and melatonin): caffeine-induced wake mouse, result in words
[9] = system: brain waves (spike amplitude / spike frequency); assay: Electrocorticography (ECoG) of brain electrical activity in caffeine-induced wakefulness mice; type: in vivo; conditions: caffeine-induced wake mouse, electrical activity over 120 minutes, result in words
Protocol: Animals were anesthetized with urethane ([…], i.p., Sigma U2500). Body temperature was maintained between 36.5 and 37° C. with homeothermic blanket. Mice were stabilized under a stereotaxic frame (World Precision Instruments, Berlin; Germany) and an incision was made on the skin along the anterior/posterior line of the skull. The left […] was removed gently with a dental drill (Marothon-3; Korea). Two Ag—AgCl sphere electrodes were placed over the left hemisphere with the reference electrode attached on the pinna.
Brains were rapidly removed, frozen on dry ice and stored at −80° C. until analyses could be performed.

[10] = Solubility in water; type: physicochemical
[11] = Storage stability; type: physicochemical; conditions: temperature range, low relative humidity; result in words; listed as Magnesium di-L-theanate compositions
[12] = Observations after administration in the animal studies of Example 5 (absorption, side effects); type: in vivo, mice
Description: Neither component in magnesium […] compositions of the invention (i.e., magnesium or L-theanine) has been reported to cause addiction.

[13] = system: GABAA-R2, GABAB-R1, GABAB-R2, 5-HT1A, GluA1, GluN1, GluN2A; assay: Western blot of GABA and other neurotransmitter receptors in caffeine-induced wakefulness mice; conditions: caffeine-induced wake mouse; result in words; listed as magnesium di-L-theanate compositions
[14] = caffeine-induced wake mouse model, 20 mg/kg
[15] = caffeine followed by saline (C) or test article (20 mg theanine/kg), means and standard deviations
[16] = caffeine-induced wake mouse, caffeine alone or + test article (20 mg theanine/kg)
[17] = result in words, listed as L-theanine
[18] = brain, caffeine followed by saline (C) or test article (20 mg theanine/kg), ELISA, means and standard deviations
[19] = caffeine-induced wake mouse, result in words, listed as magnesium di-L-theanate compositions
[20] = caffeine-induced awake mouse model, result in words
[21] = result in words, listed as magnesium di-L-theanate composition
[22] = result in words, listed as magnesium di-L-theanate compositions
[23] = listed as magnesium di-L-theanate compositions

## CCNC(=O)CCC(N)C(=O)O (stereo not drawn) [CT, 2-amino-4-(ethylcarbamoyl)-butyric acid, reference compound]
[1]; [14]
  REM time during the sleep cycle: increases
  Sleep latency: significantly decrease
  Sleep time: increase
[1]; chronic administration
  NREM time, chronic administration: significant increase
[1]; single doses
  NREM time, single doses: little effect
[2]; [15]
  CAT: 29.51 + 2.06c IU/mg protein
  GSHPx: 15.56 + 7.94ab IU/mg protein
  MDA: 2.46 + 0.17b nmol/g
  SOD: 117.14 + 13.89c IU/mg protein
[2]; caffeine-induced wake mouse, result in words, listed as Theanine
  Levels of protective enzymes (SOD, CAT, GSHPx): decreased, but the changes were not as great as those shown by caffeine treatment.
[3]; [16]
  Number of animals falling asleep (share of the group that fell asleep): + Theanine: 62.5% of the group fell asleep
  Sleep latency period: + Theanine: The sleep latency period increased from about 1 to about 1.5 minute, a minutes
[4]
  Time to cross the blood-brain barrier after oral administration: ≤ 30 min
[5]
  Intravenous dose that could inhibit the stimulatory action of caffeine: higher than 0.78 mg/kg
[6]; listed as Theanine
  Brain cell survival (Bax, Bcl-2, Caspase-3, eNOS, and iNOS, indicators of cell damage): + Theanine: Administration of theanine caused trends toward normalization of these
[7]; 20 mg/kg per os
  Animals that failed to sleep during the 10-minute period following pentobarbital administration: About 62%
[7]; result in words
  Duration of sleep: significantly increased
  Sleep latency period: significantly reduced
[7]; [17]
  Duration of sleep: significantly increased
  Sleep latency period: significantly decreased
[8]; [18]
  Dopamine: 779.00 + 77.73c ng/g
  Melatonin: 0.69 + 0.08c pg/g
  Serotonin: 655.43 + 35.46c ng/g
[9]; listed as Theanine
  Amplitude of brain waves: + Theanine: Within about 30 minutes, the amplitude of brain waves increased significantly
  Spike frequency of electrical activity in the brain: significantly reduced, as compared to caffeine-treated animals.

## CCNC(=O)CCC(N)C(=O)O [Mg Theanate Composition, magnesium di-L-theanate]
[10]
  solubility: ~650 mg/mL (≈ 3730 mM)
[2]; caffeine-induced wake mouse, result in words
  Levels of protective enzymes (SOD, CAT, GSHPx): protective enzymes were decreased, the adverse changes were not as great as those shown by
[2]; [19]
  Level of MDA (indicator of oxidative stress): decrease in oxidative stress
  Levels of protective enzymes (SOD, CAT, GSHPx): restoration of brain anti-oxidant status
[3]; as early as
  Time after administration at which beneficial enhancement of sleep properties was exhibited: about 30 minutes
[3]; [20]
  Number of animals falling asleep as compared to L-theanine-treated animals: significant increase
  Sleep duration as compared to L-theanine itself: significant lengthening and normalization
  Sleep latency period as compared to L-theanine itself: significant decrease
[3]; [16]
  Number of animals falling asleep (share of the group that fell asleep): + Mg Theanate Composition: 70% of the group fell asleep
  Sleep duration period: + Mg Theanate Composition: The sleep duration period of about 50 minutes was greatly
  Sleep latency period: slightly more than 1 minute, a significantly shorter period than found in caffeine-treated minutes
[11]
  Storage stability: stable during storage under conditions having temperatures ranging from −80 °C to +120 °C at low relative humidity; also recorded: greatest at temperatures from −80 °C to +60 °C at low relative humidity
[12]
  Adverse effects on activities during or immediately after wakefulness: No adverse effects were observed
  Side effects during or after treatment: No side effects were observed
[12]; result in words
  Absorption and distribution following administration: rapidly absorbed and distributed to the brain
[6]; listed as magnesium di-L-theanate
  Brain cell survival (Bax, Bcl-2, Caspase-3, eNOS, and iNOS, indicators of cell damage): significant normalization
[13]
  GABA and other neurotransmitter receptors (receptor levels): significant diminution in the caffeine-related reduction
[7]; 20 mg theanine/kg per os
  Animals that fell asleep (10-minute period following pentobarbital administration): over 50%
[7]; 20 mg theanine/kg per os, result in words
  Likelihood to fall asleep within the 10 minute limit as compared to theanine: significantly more likely to fall asleep
[7]; [21]
  Duration of sleep: significantly increased
  Sleep latency period: significantly reduced
[7]; [22]
  Duration of sleep: significantly and more effectively increased
  Sleep latency period: significantly and more effectively decreased
[8]
  Neurotransmitter levels (brain serotonin, dopamine, and melatonin): animals, levels of all three neurotransmitters were more significantly restored to control
[8]; [23]
  Neurotransmitter levels (brain serotonin, dopamine, and melatonin): significant restoration
[9]
  Amplitude of brain waves: increased significantly and was maintained throughout the 120 minute study period. Spike
  Spike frequency of electrical activity in the brain: frequency was significantly reduced and comparable to caffeine/theanine-treated animals.
[9]; [23]
  Amplitude of brain waves: significant increase
  Spike frequency of electrical activity in the brain: significant reduction
